From patent US6737383B1, “Herbicidal oxadiazolidines” (priority 1999, dated 2004)

How the values were obtained:
giant foxtail = test: Test B pre/postemergence giant foxtail; format: in vivo, Setaria faberii
Method in brief: (§1)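 Test chemicals in a non-phytotoxic solvent mixture with surfactant were sprayed preemergence onto planted seeds and postemergence onto plants 2 to 18 cm tall (1- to 4-leaf stage). After twelve to sixteen days in a greenhouse, injury was visually rated against untreated controls from 0 (no effect) to 10 (complete control).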

corn = test: Test B pre/postemergence corn; format: in vivo, Zea mays
Method in brief: as §1

cocklebur = test: Test B pre/postemergence cocklebur; format: in vivo, Xanthium strumarium
Method in brief: as §1

morningglory = test: Test B pre/postemergence morningglory; format: in vivo, Ipomoea hederacea
Method in brief: as §1

wild oat = test: Test B pre/postemergence wild oat; format: in vivo, Avena fatua
Method in brief: as §1

pigweed = test: Test B pre/postemergence pigweed; format: in vivo, Amaranthus retroflexus
Method in brief: as §1

bedstraw = test: Test B pre/postemergence bedstraw; format: in vivo, Galium aparine
Method in brief: as §1

crabgrass = test: Test B pre/postemergence crabgrass; format: in vivo, Digitaria sanguinalis
Method in brief: as §1

wheat = test: Test B pre/postemergence wheat; format: in vivo, Triticum aestivum
Method in brief: as §1

soybean = test: Test B pre/postemergence soybean; format: in vivo, Glycine max
Method in brief: as §1

purple nutsedge = test: Test B pre/postemergence purple nutsedge; format: in vivo, Cyperus rotundus
Method in brief: as §1

velvetleaf = test: Test B pre/postemergence velvetleaf; format: in vivo, Abutilon theophrasti
Method in brief: as §1

rape = test: Test B pre/postemergence rape; format: in vivo, Brassica napus
Method in brief: as §1

surinam grass = test: Test B pre/postemergence surinam grass; format: in vivo, Brachiaria decumbens
Method in brief: as §1

blackgrass = test: Test B pre/postemergence blackgrass; format: in vivo, Alopecurus myosuroides
Method in brief: as §1

[1] = Postemergence, Rate 125 g/ha, scale of 0 to 10 where 0 is no effect and 10 is complete control
[2] = Preemergence, Rate 62 g/ha, scale 0 to 10 (0 no effect, 10 complete control)
[3] = Preemergence, Rate 125 g/ha, 0 is no effect, 10 is complete control
[4] = Preemergence, Rate 250 g/ha, scale 0 to 10, 0 is no effect, 10 is complete control
[5] = Preemergence, Rate 500 g/ha, scale 0 to 10 (0 no effect, 10 complete control)
[6] = Rate 62 g/ha, Postemergence, scale of 0 to 10 where 0 is no effect and 10 is complete control
[7] = Rate 250 g/ha, Postemergence, scale 0 to 10, 0 is no effect, 10 is complete control
[8] = Rate 500 g/ha, Postemergence, scale 0 to 10

## C=CCn1c(=O)on(C(=O)N(c2ccc(F)cc2F)C(C)C)c1=O [Compound 151]
Giant foxtail; [1]
  Giant foxtail plant response rating: 8
Giant foxtail; [2]
  Giant foxtail plant response rating: 9
Giant foxtail; [3]
  Giant foxtail plant response rating (0 to 10 scale): 10
Giant foxtail; [4]
  Giant foxtail plant response rating: 10
Giant foxtail; [5]
  Giant foxtail plant response rating: 10
Giant foxtail; [6]
  Giant foxtail plant response rating: 7
Giant foxtail; [7]
  Plant response rating, Giant foxtail: 8
Giant foxtail; [8]
  Giant foxtail plant response rating: 8
corn; [1]
  Corn plant response rating: 0
corn; [2]
  Corn plant response rating: 0
corn; [3]
  Corn plant response rating (0 to 10 scale): 0
corn; [4]
  Corn plant response rating: 5
corn; [5]
  Corn plant response rating: 9
corn; [6]
  Corn plant response rating: 0
corn; [7]
  Plant response rating, Corn: 2
corn; [8]
  Corn plant response rating: 6
cocklebur; [1]
  Cocklebur plant response rating: 0
cocklebur; [2]
  Cocklebur plant response rating: 0
cocklebur; [4]
  Cocklebur plant response rating: 0
cocklebur; [5]
  Cocklebur plant response rating: 0
cocklebur; [6]
  Cocklebur plant response rating: 0
cocklebur; [7]
  Plant response rating, Cocklebur: 2
cocklebur; [8]
  Cocklebur plant response rating: 2
morningglory; [2]
  Morningglory plant response rating: 0
morningglory; [3]
  Morningglory plant response rating (0 to 10 scale): 0
morningglory; [4]
  Morningglory plant response rating: 0
morningglory; [5]
  Morningglory plant response rating: 0
morningglory; [6]
  Morningglory plant response rating: 4
morningglory; [7]
  Plant response rating, Morningglory: 6
morningglory; [8]
  Morningglory plant response rating: 6
Wild oat; [2]
  Wild oats plant response rating: 8
Wild oat; [3]
  Wild oats plant response rating (0 to 10 scale): 9
Wild oat; [4]
  Wild oats plant response rating: 10
Wild oat; [5]
  Wild oats plant response rating: 10
Wild oat; [7]
  Plant response rating, Wild oats: 6
Wild oat; [8]
  Wild oats plant response rating: 8
pigweed; [1]
  Redroot pigweed plant response rating: 3
pigweed; [2]
  Redroot pigweed plant response rating: 10
pigweed; [3]
  Redroot pigweed plant response rating (0 to 10 scale): 10
pigweed; [4]
  Redroot pigweed plant response rating: 10
pigweed; [5]
  Redroot pigweed plant response rating: 10
pigweed; [6]
  Redroot pigweed plant response rating: 3
pigweed; [7]
  Plant response rating, Redroot pigweed: 5
pigweed; [8]
  Redroot pigweed plant response rating: 7
bedstraw; [1]
  Bedstraw plant response rating: 3
bedstraw; [2]
  Bedstraw plant response rating: 0
bedstraw; [3]
  Bedstraw plant response rating (0 to 10 scale): 0
bedstraw; [4]
  Bedstraw plant response rating: 0
bedstraw; [5]
  Bedstraw plant response rating: 0
bedstraw; [6]
  Bedstraw plant response rating: 3
bedstraw; [7]
  Plant response rating, Bedstraw: 4
bedstraw; Rate 500 g/ha, Postemergence, scale 0 to 10, 0 no effect, 10 complete control
  Bedstraw plant response rating: 7
crabgrass; [1]
  Crabgrass plant response rating: 9
crabgrass; [2]
  Crabgrass plant response rating: 10
crabgrass; [3]
  Crabgrass plant response rating (0 to 10 scale): 10
crabgrass; [4]
  Crabgrass plant response rating: 10
crabgrass; [5]
  Crabgrass plant response rating: 10
crabgrass; [6]
  Crabgrass plant response rating: 8
crabgrass; [7]
  Plant response rating, Crabgrass: 9
crabgrass; [8]
  Crabgrass plant response rating: 9
wheat; [2]
  Wheat plant response rating: 2
wheat; [3]
  Wheat plant response rating (0 to 10 scale): 2
wheat; [4]
  Wheat plant response rating: 4
wheat; [5]
  Wheat plant response rating: 5
wheat; [6]
  Wheat plant response rating: 0
wheat; [7]
  Plant response rating, Wheat: 4
wheat; [8]
  Wheat plant response rating: 8
soybean; [1]
  Soybean plant response rating: 4
soybean; [2]
  Soybean plant response rating: 0
soybean; [3]
  Soybean plant response rating (0 to 10 scale): 0
soybean; [4]
  Soybean plant response rating: 3
soybean; [5]
  Soybean plant response rating: 7
soybean; [6]
  Soybean plant response rating: 3
soybean; [7]
  Plant response rating, Soybean: 4
soybean; [8]
  Soybean plant response rating: 4
Purple nutsedge; [1]
  Nutsedge plant response rating: 3
Purple nutsedge; [2]
  Nutsedge plant response rating: 0
Purple nutsedge; [3]
  Nutsedge plant response rating (0 to 10 scale): 0
Purple nutsedge; [4]
  Nutsedge plant response rating: 0
Purple nutsedge; [5]
  Nutsedge plant response rating: 2
Purple nutsedge; [6]
  Nutsedge plant response rating: 2
Purple nutsedge; [7]
  Plant response rating, Nutsedge: 5
Purple nutsedge; [8]
  Nutsedge plant response rating: 5
velvetleaf; [2]
  Velvetleaf plant response rating: 6
velvetleaf; [3]
  Velvetleaf plant response rating (0 to 10 scale): 8
velvetleaf; [4]
  Velvetleaf plant response rating: 10
velvetleaf; [5]
  Velvetleaf plant response rating: 10
velvetleaf; [6]
  Velvetleaf plant response rating: 3
velvetleaf; [7]
  Plant response rating, Velvetleaf: 3
velvetleaf; [8]
  Velvetleaf plant response rating: 5
rape; [1]
  Rape plant response rating: 0
rape; [2]
  Rape plant response rating: 2
rape; [3]
  Rape plant response rating (0 to 10 scale): 8
rape; [4]
  Rape plant response rating: 10
rape; [5]
  Rape plant response rating: 10
rape; [6]
  Rape plant response rating: 0
rape; [7]
  Plant response rating, Rape: 0
rape; [8]
  Rape plant response rating: 2
Surinam grass; [1]
  B. signalgrass plant response rating: 4
Surinam grass; [2]
  B. signalgrass plant response rating: 4
Surinam grass; [4]
  B. signalgrass plant response rating: 5
Surinam grass; [5]
  B. signalgrass plant response rating: 7
Surinam grass; [6]
  B. signalgrass plant response rating: 3
Surinam grass; [7]
  Plant response rating, B. signalgrass: 6
Surinam grass; Rate 500 g/ha, Postemergence, scale of 0 to 10 where 0 is no effect and 10 is complete control
  B. signalgrass plant response rating: 7
blackgrass; [1]
  Blackgrass plant response rating: 8
blackgrass; [2]
  Blackgrass plant response rating: 8
blackgrass; [3]
  Blackgrass plant response rating (0 to 10 scale): 9
blackgrass; [4]
  Blackgrass plant response rating: 10
blackgrass; [5]
  Blackgrass plant response rating: 10
blackgrass; [6]
  Blackgrass plant response rating: 8
blackgrass; [7]
  Plant response rating, Blackgrass: 8
blackgrass; [8]
  Blackgrass plant response rating: 9
